This experiment addresses T1, cathepsin D isolated from the human liver (Homo sapiens, UniProt P07339).
T1 construct: cathepsin D isolated from the human liver (Sigma-Aldrich); purchased Sigma-Aldrich; host or cells: human liver (tissue-derived, not recombinant)
The experiment is described as follows: In-vitro fluorescence assay for identification of cathepsin D inhibitors. It counts as biochemical. To be noted: human liver cathepsin D 1.4 nM, pH 5.5; read-out: CatD assay IC50-(M). As for the experimental part: EXAMPLE 4: IN-VITRO FLUORESCENCE ASSAY FOR IDENTIFICATION OF CATHEPSIN D INHIBITORS
In order to identify modulators of cathepsin D activity, a continuous enzymatic test was carried out with a synthetic peptide which carries a fluorescent group (MCA=(7-methoxycoumarin-4-yl)acetyl) which is quenched by energy transfer from a Dpn (2,4 dinitrophenyl) group on the same molecule, in Greiner 384-well nb microtitre plates. Cleavage of the peptidic substrate by cathepsin D causes an increase in the fluorescence intensity. In order to determine the efficacy of substances, the time-dependent increase in the fluorescence intensity in the presence of the substance was compared with the time-dependent increase in fluorescence in the absence of substances. The reference substance used was pepstatin A (Sigma-Aldrich). The substrate used was MCA-GKPILFFRLK(Dnp)d-R—NH2 (Enzo Life Sciences, Lörrach). The enzyme employed was cathepsin D isolated from the human liver (Sigma-Aldrich) in a final concentration of 1.4 nM. The test was carried out in 100 mM sodium acetate buffer, 1.25% (v/v) of DMSO, 0.25% (w/v) of Chaps, pH 5.5. 2 μl of each substance solution with serially diluted substance concentration were added to in each case 4 μl of cathepsin D solution and incubated at room temperature for 10 min. The reaction was started by addition of 2 μl of substrate solution (final concentration 5 μM). After carrying out a starting-point fluorescence measurement (excitation wavelength 340 nm/emission wavelength 450 nm) using an Envision multilabel reader (Perkin Elmer), the reaction was incubated at room temperature for 60 min. The amount of peptide fragment cleaved off during the reaction time was subsequently measured by determination of the increase in the fluorescence intensity at 450 nm (excitation wavelength 340 nm).

T1 sequence (P07339 65-161 limits assumed): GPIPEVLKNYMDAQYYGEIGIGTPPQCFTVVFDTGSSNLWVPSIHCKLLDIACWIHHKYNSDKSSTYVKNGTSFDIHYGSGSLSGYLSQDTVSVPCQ
T1 sequence (P07339 169-412 limits assumed): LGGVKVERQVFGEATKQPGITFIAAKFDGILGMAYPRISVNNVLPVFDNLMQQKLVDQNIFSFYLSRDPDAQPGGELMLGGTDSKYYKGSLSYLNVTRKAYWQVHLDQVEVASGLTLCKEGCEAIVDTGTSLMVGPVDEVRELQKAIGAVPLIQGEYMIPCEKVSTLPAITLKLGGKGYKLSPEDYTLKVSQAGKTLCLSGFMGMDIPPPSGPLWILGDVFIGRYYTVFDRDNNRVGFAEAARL

Take `CC[C@H](C)[C@H](NC(=O)C[C@H](O)[C@H](Cc1ccccc1)NC(=O)[C@@H](NC(=O)[C@@H](O)c1ccccc1)C(C)C)C(=O)N[C@H](C(=O)O)C(C)C` [Compound 37, (S)-2-((2S,3S)-2-{(3S,4S)-3-hydroxy-4-[(S)-2-((S)-2-hydroxy-2-phenylacetylamino)-3-methylbutyrylamino]-5-phenylpentanoylamino}-3-methylpentanoylamino)-3-methylbutyric acid]: the 50% inhibitory concentration (IC50) turned out to be 3.1e-07 M.
Take `CCOc1cccc(CC(=O)N[C@H](C(=O)N[C@@H](Cc2ccccc2)[C@@H](O)CC(=O)N[C@H](C(=O)N[C@H](C(=O)OCc2ccccc2)C(C)C)[C@@H](C)CC)C(C)C)c1` [Compound 12, benzly (S)-2-[(2S,3S)-2-((3S,4S)-4-{(S)-2-[2-(3-ethoxyphenyl)-acetylamino]-3-methylbutyrylamino}-3-hydroxy-5-phenylpentanoylamino)-3-methylpentanoylamino]-3-methylbutyrate]: the IC50 is 2.5e-08 M.
The result for `CC[C@H](C)[C@H](NC(=O)C[C@H](O)[C@H](Cc1ccccc1)NC(=O)[C@@H](NC(=O)Cc1ccc2ccccc2c1)C(C)C)C(=O)N[C@H](C(=O)OCc1ccccc1)C(C)C` [Compound 16, benzly (S)-2-((2S,3S)-2-{(3S,4S)-3-hydroxy-4-[(S)-3-methyl-2-(2-naphthalen-2-ylacetylamino)butyrylamino]-5-phenylpentanoylamino}-3-methylpentanoylamino)-3-methylbutyrate] reads 1.5e-07 M; that for `CCOc1cccc(CC(=O)N[C@H](C(=O)N[C@@H](Cc2ccccc2)[C@@H](O)CC(=O)N[C@H](C(=O)N[C@H](C(=O)O)C(C)C)[C@@H](C)CC)[C@@H](C)CC)c1` [Compound 36, (S)-2-[(2S,3S)-2-((3S,4S)-3-hydroxy-4-{(S)-methyl-1-(S)-2-[2-(3-ethoxyphenyl)acetylamino]-3-oxopentylamino}-5-phenylpentanoylamino)-3-methylpentanoylamino]-3-methylbutyric acid], 4.3e-08 M.
As to `CC[C@H](C)[C@H](NC(=O)C[C@H](O)[C@H](Cc1ccccc1)NC(=O)[C@@H](NC(=O)[C@H](CC(C)C)NC(=O)CC(C)C)C(C)C)C(=O)NC(C)(C)CCO` [Compound 49, N-[(1S,2S)-1-(3-hydroxy-1,1-dimethylpropylcarbamoyl)-2-methylbutyl]-(3S,4S)-3-hydroxy-4-{(S)-3-methyl-2-[(S)-4-methyl-2-(3-methylbutyrylamino)pentanoylamino]butyrylamino}-5-phenylpentanamide], the concentration for half-maximal inhibition (IC50) was determined as 2.1e-10 M.
On to `CCC[C@H](NC(=O)C[C@H](O)[C@H](Cc1ccccc1)NC(=O)[C@@H](NC(=O)[C@H](CC(C)C)NC(=O)CC(C)C)C(C)C)C(=O)NC(CC)CC` [Compound 48, N—[(S)-1-(1-ethylpropylcarbamoyl)butyl]-(3S,4S)-3-hydroxy-4-{(S)-3-methyl-2-[(S)-4-methyl-2-(3-methylbutyrylamino)pentanoylamino]-butyrylamino}-5-phenylpentanamide], for which the 50% inhibitory concentration (IC50) is 2.6e-10 M.
The result for `CC[C@H](C)[C@H](NC(=O)C[C@H](O)[C@H](Cc1ccccc1)NC(=O)[C@@H](NC(=O)c1cccc(-c2ccccc2)c1)C(C)C)C(=O)N[C@H](C(=O)O)C(C)C` [Compound 31, (S)-2-[(2S,3S)-2-((3S,4S)-4-{(S)-2-[(biphenyl-3-carbonyl)amino]-3-methylbutyrylamino}-3-hydroxy-5-phenylpentanoylamino)-3-methylpentanoylamino]-3-methylbutyric acid] reads 1.6e-07 M; that for `CC[C@H](C)[C@H](NC(=O)C[C@H](O)[C@H](Cc1ccccc1)NC(=O)[C@@H](NC(=O)Cc1cccc(OCCN)c1)[C@@H](C)CC)C(=O)N[C@H](C(=O)O)C(C)C` [Compound 41, (S)-2-{(2S,3S)-2-[(3S,4S)-4-((S)-2-{2-[3-(2-aminoethoxy)phenyl]-acetylamino}-3-methyl-1-(S)-oxopentylamino)-3-hydroxy-5-phenylpentanoylamino]-3-methylpentanoylamino}-3-methylbutyric acid], 4.8e-07 M.

Broadly, the IC50 is the concentration needed to halve the response being measured.

The values above are taken from patent publication US10077288B2, “Hydroxystatin derivatives for the treatment of arthrosis” (Merck Patent GmbH, priority 2012, dated 2018).
